For data set [1] the following is noted: previous work; cited from earlier work.
In the next data set the target is T1, Rac1-Tiam1 interactions (Homo sapiens, UniProt P63000).
T1 construct: purchased Cytoskeleton, Inc. BK100
Description: Rho-GEF exchange assay with purified Tiam1 and Rac1 (Cytoskeleton BK100 kit). The format is biochemical. The method, then:
(§1) FIGS. 3A-3C depicts various properties of compound C20. FIG. 3A) Compound C20 inhibits PDGF-mediated Rac1-GTP activity at 0.5 μM in murine-derived neurofibroma cells. After 24-hour starvation in 0.5% BSA/DMEM, Nf1−/− Schwann cells were pretreated with compound C20 at the indicated concentrations. Cells were then stimulated with 50 ng/mL PDGF for 2 minutes and harvested for immunoprecipitation and activity assays. FIG. 3B) Compound C20 specifically interfered with Rac1-Tiam1 interactions at 15 nM in a GEF assay using purified protein. FIG. 3C) In [^3H]-thymidine dose-inhibition experiments, murine derived Nf1−/− Schwann cells were pre-treated with increasing quantities of the known Rac1 inhibitor NSC23766 or with putative Rac1 inhibitor C20.
Rho-GEF exchange experiments using a commercially available kit that measures guanine exchange fluorescence quantification (Cat #BK100; Cytoskeleton, Inc., Denver, Colo.) were conducted to measure GEF inhibition by C20.

A further data set has as its system Erk1/2. Description: Erk1/2 phosphorylation. The format is cell-based. The source says: (§2) No effect of C20 on Ras-GTP activation or Akt phosphorylation was observed (data not shown). However, C20 mitigated Erk1/2 phosphorylation.
The target of the next data set is T2, Rac1-GTP (Mus musculus, UniProt P63001).
T2 construct: endogenous in cells; host or cells: murine-derived Nf1-/- Schwann cells
The data set is described as follows: PDGF-mediated Rac1-GTP activity in Nf1-/- Schwann cells (immunoprecipitation and activity assay). It counts as cell-based. The settings on record: murine-derived neurofibroma cells (Nf1-/- Schwann cells), 50 ng/mL PDGF for 2 minutes. On the procedure:
FIG. 2 depicts the inhibition of Rac1-GTP activity by compound C20-26. Compound C20-26 inhibits PDGF-mediated Rac1-GTP activity at 40 nM in murine-derived neurofibroma cells. After 24-hour starvation in 0.5% BSA/DMEM, Nf1−/−Schwann cells were pretreated with compound C20-26 at the indicated concentrations. Cells were then stimulated with 50 ng/mL PDGF for 2 minutes and harvested for immunoprecipitation.
as §1

Another data set relates to Nf1-/- Schwann cells. Description: PDGF-mediated proliferation of NF1-deficient Schwann cells ([3H]-thymidine). It counts as cell-based, murine. On the procedure:
as §1
In initial screens assaying platelet derived growth factor (PDGF)-mediated proliferation in NF1-deficient Schwann cells, compound C20 (KM04569, Ryan Scientific) was identified. C20 inhibited Schwann cell proliferation at 2 μM and Rac1GTP activity at 0.5 μM (FIGS. 3A-C). The structure of C20 is shown below:
Several analogs of C20 were identified or synthesized and were then screened using the NF1−/− Schwann cell proliferation assay. The initial set of thirteen analogs were developed (Table 1; First SAR) by making substitutions in the C and D pharmacophore elements.

Another data set concerns Akt. The data set is described as follows: Akt phosphorylation. The format is cell-based. The settings on record: data not shown.
Excerpt: as §2

In a further data set the test system is Ras-GTP. The data set is described as follows: Ras-GTP activation. It counts as cell-based. Particulars: data not shown.
Excerpt: as §2

For a further data set, the target named is Rac1 (Homo sapiens, UniProt P63000). The settings on record: previous work; cited from earlier work.

A word on the IC50: it is the point on the concentration scale where inhibition reaches its midpoint.

`CCN(CC)CCCC(C)Nc1nc(C)cc(Nc2ccc3nc(C)cc(N)c3c2)n1` (stereo not shown) [NSC23766]: in data set [1], the toxicity entry is “high toxicity”.

Turning to `O=S(=O)(Oc1cc(Cl)cc(Cl)c1)c1ccc(-c2ccccn2)s1` [Compound C20], on Rac1-Tiam1 interactions (GEF assay using purified protein), the “concentration interfering with Rac1-Tiam1 interactions” value was found to be 15 nM. Further, the GEF inhibition entry at Rac1-Tiam1 interactions (incubating Tiam1 and Rac1) is recorded as “dose-dependent GEF inhibition”. The “effect on Erk1/2 phosphorylation” value in the data set with Erk1/2 is “mitigated”. Moreover, the “concentration inhibiting PDGF-mediated Rac1-GTP activity” value on Rac1-GTP stood at 0.5 µM. The IC50 in the data set with Nf1-/- Schwann cells (Mus musculus, murine derived Nf1-/- Schwann cells, approximate, read-out: IC50, [3H]-thymidine dose-inhibition) is approximately 2 µM. Moreover, the “concentration inhibiting Schwann cell proliferation” value in the data set on Nf1-/- Schwann cells (PDGF-mediated proliferation, NF1-deficient Schwann cells) worked out at 2 µM. Further, in the data set on Akt, the “effect on Akt phosphorylation” value is given as “No effect”. The “effect on Ras-GTP activation” value in the data set on Ras-GTP was “No effect”.

For the compound `CCn1c2ccccc2c2cc(Nc3ccnc(NCCCN4CCOCC4)n3)ccc21` [EHop-016], the “concentration inhibiting Rac1” value at Rac1 is 1.1 µM.
